Measurements published in patent publication US20050084546A1, “Antioxidant and antiactinic tea plant products” (priority 2003, published 2005).

Columns and labels:
Cytochrome C = test: In vitro cytochrome C oxidation-reduction assay in the presence of isolated neutrophils (antioxidant activity); assay type: biochemical
Source text: An in vitro cytochrome C oxidation-reduction assay conducted in the presence of isolated neutrophils is used to assess the antioxidant activity of a group of test materials comprising aqueous extracts of the inventive mixed tea blend prepared by the method of Example 3 having the concentrations indicated in Table 1, below, and known antioxidant materials, namely green tea extract, white tea extract, grape polyphenols and vitamin E, as controls. Reduction of cytochrome C by free radicals causes an increase in light absorbence at 550 nm. Cytochrome C is an ubiquitous iron-containing cellular respiratory enzyme. Singlet oxygen prevents free radical reduction and the consequent increase in light absorbance. The oxidation-reduction assay determines the ability of the test materials to control the activity of chemically generated singlet oxygen, permitting the reductive free radicals to induce increased light absorbence, which is measured.
The assay system employed, determination of the impact of singlet oxygen on a biological entity, cytochrome C, is believed to be a useful model of in vivo activity. However, the invention is not dependent upon this or any other theory.

[1] = test system: fibroblasts and keratinocytes; test: Free radical (ROS, xanthine oxidase/hypoxanthine) cytotoxicity inhibition, MTT dye method; assay type: cell-based; settings: about 24 hours
Source text: Xanthine oxidase and hypoxanthine, referenced “XO” in Table 2, are employed together as a system to generate free radicals such as hydrogen peroxide, the hydroxyl radical and superoxide, as is known in the art. The free radical products of xanthine oxidase and hypoxanthine referenced “ROS” hereinafter, provide a test system which can be used to model the ability of test materials to protect biological organisms against the action of free radicals.
Test 2 determines the ability of the group of test materials employed in Test 1 to reduce ROS cytotoxicity to fibroblasts and keratinocytes. Cells are seeded in 96-well plates and grown for two days. They are then exposed for about 24 hours to hypoxanthine at 100 □ g/ml and to various concentrations of xanthine oxidase, ranging, as shown in Table 2's column headers, from 2 mU/ml to 40 mU/ml. Fresh culture medium is added after exposure to ROS and cell death is assessed by the conventional MTT dye method wherein light absorbence at 570 nm is measured. Only living cells take up the MTT dye which absorbs at the measurement wavelength. The cytotoxicity test results, using the quantity of the test materials listed to inhibit free radical toxicity, are set forth in Table 2, below. The control is an aliquot of water.

Fibroblasts = test: UV cytotoxicity assay, cell count in hemocytometer; assay type: cell-based
Description: Fibroblasts, grown in Dulbecco medium (DM) supplemented with fetal calf serum are plated in 24 well plates at a density of 20,000 cells per well. Twelve hours after plating, fresh DM with fetal calf serum is added. After an additional 12 hours various test materials as set forth in Table 3, are added to the wells. Six, twelve and twenty four hours later, cultures are exposed to UV at varying low and high doses. The low dose is chosen to stimulate growth and cause a hyper-proliferative response, while the higher dose is chosen to induce cytotoxic effects. After 72 and 144 hours, cells are trypsinized, and counted in a hemocytometer chamber. The cytotoxicity test results using the indicated quantities of the test materials to inhibit free radical toxicity, are set forth in Table 3, below. The control is an aliquot of water.

[2] = test system: stratum corneum (skin cell turnover); test: In vivo inhibition of UV-induced skin cell renewal, dansyl chloride staining technique; parameters: species or system human
Description: The dansyl chloride staining technique is used to measure rates of skin cell turnover, under normal conditions and under conditions of exposure to ultraviolet light with and without protection from various test materials.
Summarizing known procedural methods, the stratum corneum is stained with fluorescent dansyl chloride by applying semi-occlusive patches of 5% dansyl chloride milled into petrolatum for 24 hours. After assuring that the stain is completely taken up by the stratum corneum layers by viewing under a quartz mineral lamp, subjects are instructed to apply water or the test product. Skin sites are treated with the various doses of UV indicated in MED in Table 6A, below, 3 days prior to and 1 day after patching with dansyl chloride. Visual inspection of the sites under UV lamp is made until the stain disappears reflecting the time required for complete turnover of the full thickness stratum corneum. Changes in cell renewal due to test material effects and UV exposure can be expressed as a percentage change compared to water-treated or untreated controls.

vitamin E
Inhibition of Cytochrome C Oxidation (Cytochrome C; test material 0.1 μg/ml): 21%
Inhibition of Cytochrome C Oxidation (Cytochrome C; test material 1.0 μg/ml): 15%
Inhibition of Cytochrome C Oxidation (Cytochrome C; test material 10 μg/ml): 11%
Inhibition of Cytochrome C Oxidation (Cytochrome C; test material 25 μg/ml): 14%
Cell Survival after Exposure to ROS Free Radicals ([1]; XO 2 mU, hypoxanthine […]): 89%
Cell Survival after Exposure to ROS Free Radicals ([1]; XO 10 mU, hypoxanthine 100 µg/ml): 47%
Cell Survival after Exposure to ROS Free Radicals ([1]; XO 20 mU, hypoxanthine 100 µg/ml): 25%
Cell Survival after Exposure to ROS Free Radicals ([1]; XO 40 MU, hypoxanthine […]): 13%
Cell Survival after Exposure to UV (Fibroblasts; UV 1 mJ/cm2): 65%
Cell Survival after Exposure to UV (Fibroblasts; UV 2 mJ/cm2): 42%
Cell Survival after Exposure to UV (Fibroblasts; UV 5 mJ/cm2): 35%
Cell Survival after Exposure to UV (Fibroblasts; UV 10 mJ/cm2): 20%
Hyperproliferative Effect ([2]; decrease in turnover time with UV versus no UV): 41.9%
Skin cell turnover, No UV Exposure ([2]; time for dansyl chloride stain to disappear (Table 5 gives turnover in days), no UV): 18.1
Skin cell turnover, UV Exposure ([2]; time for dansyl chloride stain to disappear (Table 5 gives turnover in days), with UV exposure): 10.5
Protection against UV-induced hyperproliferation (in words) ([2]; topical, UV exposure): no protection
